Reference: ChEMBL document CHEMBL1201862, “PubChem BioAssay data set” (2004)
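Growth conditions: 96-well plates. Treatment: test compound, 48 hours, 5 concentrations. Analysis: linear interpolation between bracketing concentrations; unreached endpoints set to highest concentration. GI50 = concentration required for 50% inhibition of growth.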 The source made the active and inactive calls. Rule as the data show it: active = GI50 up to about 1.1 µM and inactive = higher.

How the values were obtained:
Assay in all cases: DTP human tumour cell line panel, 48 h
MDA-N = system: MDA-N
786-0 = system: 786-0
SF-539 = system: SF-539
SK-MEL-5 = system: SK-MEL-5
U-251 = system: U-251
SN12C = system: SN12C
NCI-H522 = system: NCI-H522
PC-3 = system: PC-3
SF-295 = system: SF-295
M14 = system: M14
NCI-H226 = system: NCI-H226
HT-29 = system: HT-29
DU-145 = system: DU-145
COLO 205 = system: COLO 205
KM12 = system: KM12
A549 = system: A549
HCT-116 = system: HCT-116
A498 = system: A498
HOP-92 = system: HOP-92
SK-MEL-2 = system: SK-MEL-2

Measured: GI50

CCCc1cc(COC)c(C#N)c(O)n1
inactive: MDA-N > 100 µM | 786-0 > 100 µM | SF-539 65 µM | SK-MEL-5 > 100 µM | U-251 > 100 µM | SN12C > 100 µM | NCI-H522 > 100 µM | PC-3 > 100 µM | SF-295 > 100 µM | M14 > 100 µM | NCI-H226 17.5 µM | HT-29 > 100 µM | DU-145 > 100 µM | COLO 205 > 100 µM | KM12 > 100 µM | A549 > 100 µM | HCT-116 > 100 µM | A498 > 100 µM

C=CCC1(Sc2ccccn2)Sc2ccc3ccccc3c2-c2c(ccc3ccccc23)S1
inactive: 786-0 > 100 µM | SF-539 > 100 µM | SK-MEL-5 > 100 µM | HOP-92 > 100 µM | SK-MEL-2 > 100 µM | U-251 > 100 µM | SN12C > 100 µM | NCI-H522 > 100 µM | PC-3 > 100 µM | SF-295 > 100 µM | M14 > 100 µM | NCI-H226 > 100 µM | HT-29 > 100 µM | DU-145 > 100 µM | COLO 205 > 100 µM | KM12 > 100 µM | A549 > 100 µM | HCT-116 > 100 µM | A498 > 100 µM

Cc1csc2nc3c(cnn3C)c(=S)n12
inactive: MDA-N > 100 µM | 786-0 > 100 µM | SF-539 > 100 µM | SK-MEL-5 > 100 µM | SK-MEL-2 41.9 µM | U-251 95.3 µM | SN12C 24.2 µM | NCI-H522 11 µM | PC-3 > 100 µM | SF-295 > 100 µM | M14 > 100 µM | HT-29 84.5 µM | COLO 205 > 10 µM | KM12 > 100 µM | A549 > 100 µM | HCT-116 > 100 µM

O=C(NCCCNCCNC(=O)c1cc(-c2ccccc2)nc2ccccc12)c1cc(-c2ccccc2)nc2ccccc12
inactive: MDA-N 1.87 µM | 786-0 1.79 µM | SF-539 1.82 µM | SK-MEL-5 1.64 µM | HOP-92 2.12 µM | SK-MEL-2 2.24 µM | U-251 1.85 µM | SN12C 1.72 µM | NCI-H522 1.75 µM | PC-3 1.68 µM | SF-295 1.73 µM | M14 2.24 µM | NCI-H226 2.32 µM | HT-29 1.52 µM | COLO 205 1.72 µM | KM12 1.91 µM | A549 1.73 µM | HCT-116 1.68 µM | A498 2.29 µM

NC1=CN(Cc2ccccc2)C2=N/C(=C\c3ccccc3)C(=O)N12
inactive: 786-0 > 100 µM | SF-539 > 100 µM | SK-MEL-5 66.5 µM | HOP-92 > 100 µM | SK-MEL-2 > 100 µM | U-251 > 100 µM | SN12C > 100 µM | NCI-H522 51.3 µM | PC-3 > 100 µM | SF-295 > 100 µM | M14 > 100 µM | NCI-H226 > 100 µM | HT-29 > 100 µM | DU-145 > 100 µM | COLO 205 > 100 µM | KM12 96.8 µM | A549 > 100 µM | HCT-116 > 100 µM | A498 > 100 µM

Cc1cccc(NC(=S)Nc2ccc(Cl)cc2)n1
inactive: 786-0 > 100 µM | SF-539 > 100 µM | SK-MEL-5 > 100 µM | HOP-92 > 100 µM | SK-MEL-2 > 100 µM | U-251 > 100 µM | PC-3 > 100 µM | SF-295 > 100 µM | M14 > 100 µM | NCI-H226 > 100 µM | HT-29 > 100 µM | DU-145 > 100 µM | COLO 205 > 100 µM | KM12 3.1 µM | HCT-116 > 100 µM | A498 > 100 µM

O=c1c2ccccc2c2c1c1c3ccccc3c(=O)c1c1c3ccccc3c(=O)c21
inactive: MDA-N > 100 µM | 786-0 > 100 µM | SF-539 > 100 µM | SK-MEL-5 > 100 µM | SK-MEL-2 > 100 µM | U-251 > 100 µM | SN12C > 100 µM | NCI-H522 > 100 µM | PC-3 > 100 µM | SF-295 > 100 µM | M14 > 100 µM | NCI-H226 > 100 µM | HT-29 > 100 µM | DU-145 > 100 µM | COLO 205 > 100 µM | KM12 > 100 µM | A549 > 100 µM | HCT-116 > 100 µM | A498 > 100 µM

Cc1ccc(S(=O)(=O)N2CCSCCSCCSCCN(S(=O)(=O)c3ccc(C)cc3)CC2)cc1
inactive: MDA-N > 100 µM | 786-0 > 100 µM | SF-539 > 100 µM | SK-MEL-5 > 100 µM | HOP-92 > 100 µM | SK-MEL-2 > 100 µM | U-251 > 100 µM | SN12C > 100 µM | SF-295 > 100 µM | M14 > 100 µM | NCI-H226 > 100 µM | HT-29 > 100 µM | DU-145 > 100 µM | COLO 205 > 100 µM | KM12 > 100 µM | A549 > 100 µM | HCT-116 > 100 µM | A498 > 100 µM

CCOP(=O)(OCC)/C(=C/n1c(=S)[nH]c2ccccc21)C(=O)OC
inactive: MDA-N > 100 µM | 786-0 > 100 µM | SF-539 > 100 µM | SK-MEL-5 > 100 µM | SK-MEL-2 > 100 µM | U-251 > 100 µM | SN12C > 100 µM | NCI-H522 > 100 µM | PC-3 > 100 µM | SF-295 > 100 µM | M14 > 100 µM | NCI-H226 > 100 µM | HT-29 > 100 µM | DU-145 > 100 µM | COLO 205 > 100 µM | KM12 > 100 µM | A549 > 100 µM | HCT-116 > 100 µM | A498 > 100 µM

O=S(=O)(CCC[C@H]1[C@@H](CCOCc2ccccc2)C2CCCN1O2)c1ccccc1 (some centres undefined)
inactive: MDA-N > 100 µM | 786-0 > 100 µM | SF-539 > 100 µM | SK-MEL-5 43.3 µM | HOP-92 > 100 µM | U-251 > 100 µM | SN12C > 100 µM | NCI-H522 > 100 µM | PC-3 > 100 µM | SF-295 > 100 µM | M14 > 100 µM | NCI-H226 > 100 µM | HT-29 > 100 µM | COLO 205 > 100 µM | KM12 > 100 µM | A549 > 100 µM | HCT-116 > 100 µM | A498 > 100 µM

COC(=O)c1ccccc1C1CN=NC12Cc1cccc(C)c1C2=O (centres undefined)
inactive: MDA-N 46.7 µM | 786-0 90.4 µM | SF-539 > 100 µM | SK-MEL-5 34.4 µM | HOP-92 25.5 µM | SK-MEL-2 46.1 µM | U-251 56 µM | SN12C 36.1 µM | NCI-H522 27.3 µM | SF-295 34.4 µM | NCI-H226 49.7 µM | HT-29 57.7 µM | DU-145 > 100 µM | COLO 205 > 10 µM | KM12 26.8 µM | A549 39.3 µM | HCT-116 37.4 µM | A498 54.6 µM

CS/C(=N\S(=O)(=O)c1ccc(Cl)cc1)NCCCCN/C(=N/S(=O)(=O)c1ccc(Cl)cc1)SC
inactive: MDA-N > 100 µM | 786-0 44.5 µM | SF-539 > 100 µM | HOP-92 60.1 µM | SK-MEL-2 > 100 µM | U-251 69.5 µM | SN12C > 100 µM | PC-3 > 100 µM | SF-295 > 100 µM | M14 > 100 µM | HT-29 > 100 µM | DU-145 > 100 µM | COLO 205 > 100 µM | HCT-116 > 100 µM | A498 32.6 µM

Cc1ccc(NC(=O)/C(Cc2nc3ccc([N+](=O)[O-])cc3nc2O)=N\NC(=O)C[n+]2ccccc2)c(C)c1
inactive: MDA-N > 100 µM | 786-0 27.9 µM | SF-539 77.1 µM | SK-MEL-5 16.9 µM | HOP-92 37.5 µM | SK-MEL-2 39.9 µM | U-251 53.6 µM | SN12C 32.1 µM | NCI-H522 19.4 µM | PC-3 39 µM | SF-295 58.1 µM | M14 89.1 µM | NCI-H226 74.6 µM | HT-29 > 100 µM | DU-145 32.1 µM | COLO 205 43.5 µM | KM12 74.6 µM | A549 23.3 µM | HCT-116 36.2 µM

CC1=NN2CCC(=O)N=C2S1
inactive: MDA-N > 100 µM | 786-0 > 100 µM | SF-539 > 100 µM | SK-MEL-5 > 100 µM | HOP-92 > 100 µM | SK-MEL-2 > 100 µM | U-251 > 100 µM | SN12C > 100 µM | NCI-H522 > 100 µM | PC-3 > 100 µM | SF-295 > 100 µM | M14 > 100 µM | NCI-H226 > 100 µM | HT-29 > 100 µM | DU-145 > 100 µM | COLO 205 > 100 µM | KM12 > 100 µM | A549 > 100 µM | HCT-116 > 100 µM

COC(=O)C(=O)CC(=O)c1cccc(OC)c1
inactive: MDA-N 5.66 µM | 786-0 > 100 µM | SF-539 > 100 µM | SK-MEL-5 > 100 µM | U-251 > 100 µM | SN12C > 100 µM | PC-3 > 100 µM | SF-295 > 100 µM | M14 > 100 µM | NCI-H226 > 100 µM | HT-29 > 100 µM | DU-145 > 100 µM | COLO 205 > 100 µM | KM12 > 100 µM | A549 > 100 µM | HCT-116 > 100 µM | A498 > 100 µM
